{
  "source": "paper PMC5218480",
  "about": "(PLoS ONE, 2017)",
  "test_system": "MV-4-11 cells",
  "assay": "Gene expression microarray analysis (Affymetrix PrimeView) and GSEA",
  "assay_type": "cell-based, human",
  "set-up": "RFU PODN (11730768_x_at) / Fold change /veh PODN (11730768_x_at) / RFU LINC00158 (11744669_a_at) / Fold change /veh LINC00158 (11744669_a_at) / RFU DUSP10 (11751237_a_at) / Fold change /veh DUSP10 (11751237_a_at) / RFU ID3 (11757404_x_at) / Fold change /veh ID3 (11757404_x_at) / RFU PLEKHG5 (11737974_s_at) / Fold change /veh PLEKHG5 (11737974_s_at) / RFU LRRC4B (11730491_at) / Fold change /veh LRRC4B (11730491_at) / RFU GIMAP4 (11747438_a_at) / Fold change /veh GIMAP4 (11747438_a_at) / RFU KRT8 (11758183_x_at) / Fold change /veh KRT8 (11758183_x_at) / RFU CNN1 (11734310_a_at) / Fold change /veh CNN1 (11734310_a_at) / RFU VPS37D (11726825_at) / Fold change /veh VPS37D (11726825_at) / RFU C10orf10 (11716522_x_at) / Fold change /veh C10orf10 (11716522_x_at) / RFU KIR2DL2 /// KIR2DL4 /// KIR2DL5A /// KIR2DL5B /// KIR2DS1 /// KIR2DS2 /// KIR2DS3 /// KIR2DS4 /// KIR3DL3 /// KIR3DL3 /// KIR3DS1 (11738374_at) / Fold change /veh KIR2DL2 /// KIR2DL4 /// KIR2DL5A /// KIR2DL5B /// KIR2DS1 /// KIR2DS2 /// KIR2DS3 /// KIR2DS4 /// KIR3DL3 /// KIR3DL3 /// KIR3DS1 (11738374_at) / RFU C1QL1 (11718748_at) / Fold change /veh C1QL1 (11718748_at) / RFU TMPRSS4 (11747572_a_at) / Fold change /veh TMPRSS4 (11747572_a_at) / RFU HAMP (11756126_x_at) / Fold change /veh HAMP (11756126_x_at) / RFU RNFT2 (11725882_a_at) / Fold change /veh RNFT2 (11725882_a_at) / RFU NR4A2 (11747474_a_at) / Fold change /veh NR4A2 (11747474_a_at) / RFU ABCC12 (11746883_a_at) / Fold change /veh ABCC12 (11746883_a_at) / RFU TMEM136 (11760407_x_at) / Fold change /veh TMEM136 (11760407_x_at) / RFU CLDN22 /// WWC2 (11732394_at) / Fold change /veh CLDN22 /// WWC2 (11732394_at) / RFU HLA-DPB1 (11760878_x_at) / Fold change /veh HLA-DPB1 (11760878_x_at) / RFU SPINT1 (11716480_a_at) / Fold change /veh SPINT1 (11716480_a_at) / RFU GAP43 (11754022_s_at) / Fold change /veh GAP43 (11754022_s_at) / RFU A4GNT (11735810_at) / Fold change /veh A4GNT (11735810_at) / RFU PRB3 (11715151_x_at) / Fold change /veh PRB3 (11715151_x_at) / RFU TUBB4B (11761932_at) / Fold change /veh TUBB4B (11761932_at) / RFU CAPN14 (11732068_a_at) / Fold change /veh CAPN14 (11732068_a_at) / RFU TMCC2 (11721928_a_at) / Fold change /veh TMCC2 (11721928_a_at) / RFU IRGQ (11745062_a_at) / Fold change /veh IRGQ (11745062_a_at) / RFU FAM174B (11720279_a_at) / Fold change /veh FAM174B (11720279_a_at) / RFU TMPRSS4 (11748680_a_at) / Fold change /veh TMPRSS4 (11748680_a_at) / RFU FAM212B (11763350_a_at) / Fold change /veh FAM212B (11763350_a_at) / RFU PLEKHG5 (11743358_a_at) / Fold change /veh PLEKHG5 (11743358_a_at) / RFU ZSCAN30 (11745921_a_at) / Fold change /veh ZSCAN30 (11745921_a_at) / RFU CMKLR1 (11741424_a_at) / Fold change /veh CMKLR1 (11741424_a_at) / RFU LOC101060620 /// MAPK8IP1 (11723275_at) / Fold change /veh LOC101060620 /// MAPK8IP1 (11723275_at) / RFU SPTSSB (11747773_x_at) / Fold change /veh SPTSSB (11747773_x_at) / RFU PRSS12 (11739890_at) / Fold change /veh PRSS12 (11739890_at) / RFU BIN1 (11741810_x_at) / Fold change /veh BIN1 (11741810_x_at) / RFU WNT11 (11732464_a_at) / Fold change /veh WNT11 (11732464_a_at) / RFU C10orf10 (11716521_a_at) / Fold change /veh C10orf10 (11716521_a_at) / RFU C5orf56 (11738089_at) / Fold change /veh C5orf56 (11738089_at) / RFU CYB561 (11721691_x_at) / Fold change /veh CYB561 (11721691_x_at) / RFU ANKRD19P (11752326_a_at) / Fold change /veh ANKRD19P (11752326_a_at) / RFU OR2T12 /// OR2T33 /// OR2T8 (11738714_s_at) / Fold change /veh OR2T12 /// OR2T33 /// OR2T8 (11738714_s_at) / RFU VCAN (11748164_a_at) / Fold change /veh VCAN (11748164_a_at) / RFU JSRP1 (11732532_at) / Fold change /veh JSRP1 (11732532_at) / RFU KRTAP10-11 (11738290_x_at) / Fold change /veh KRTAP10-11 (11738290_x_at) / RFU MYO3A (11730013_a_at) / Fold change /veh MYO3A (11730013_a_at) / RFU EBF3 (11725865_a_at) / Fold change /veh EBF3 (11725865_a_at) / RFU CAMK2N1 (11719241_x_at) / Fold change /veh CAMK2N1 (11719241_x_at) / RFU C5orf56 (11738088_a_at) / Fold change /veh C5orf56 (11738088_a_at) / RFU OLFML3 (11715873_a_at) / Fold change /veh OLFML3 (11715873_a_at) / RFU LOC100653217 /// NTM (11731650_a_at) / Fold change /veh LOC100653217 /// NTM (11731650_a_at) / RFU MAPK11 (11762145_a_at) / Fold change /veh MAPK11 (11762145_a_at) / RFU FIZ1 (11724087_x_at) / Fold change /veh FIZ1 (11724087_x_at) / RFU OASL (11726364_x_at) / Fold change /veh OASL (11726364_x_at) / RFU SOX15 (11748057_x_at) / Fold change /veh SOX15 (11748057_x_at) / RFU CD79A (11719716_a_at) / Fold change /veh CD79A (11719716_a_at) / RFU HIST1H1D (11736915_at) / Fold change /veh HIST1H1D (11736915_at) / RFU CASKIN2 (11723855_a_at) / Fold change /veh CASKIN2 (11723855_a_at) / RFU LOC730098 (11760151_x_at) / Fold change /veh LOC730098 (11760151_x_at) / RFU OR4N2 (11742367_at) / Fold change /veh OR4N2 (11742367_at) / RFU PRRT2 (11749266_a_at) / Fold change /veh PRRT2 (11749266_a_at) / RFU SNX32 (11753110_a_at) / Fold change /veh SNX32 (11753110_a_at) / RFU CDHR5 (11726645_a_at) / Fold change /veh CDHR5 (11726645_a_at) / RFU RCAN1 (11760418_a_at) / Fold change /veh RCAN1 (11760418_a_at) / RFU FAM167A (11723789_a_at) / Fold change /veh FAM167A (11723789_a_at) / RFU FAM26E (11764081_at) / Fold change /veh FAM26E (11764081_at) / RFU ISYNA1 (11749810_s_at) / Fold change /veh ISYNA1 (11749810_s_at) / RFU ACY1 (11761880_at) / Fold change /veh ACY1 (11761880_at) / RFU 11764098_at / Fold change /veh 11764098_at / RFU SAMD14 (11745864_x_at) / Fold change /veh SAMD14 (11745864_x_at) / RFU NPB (11741838_a_at) / Fold change /veh NPB (11741838_a_at) / RFU TMPRSS6 (11731388_a_at) / Fold change /veh TMPRSS6 (11731388_a_at) / RFU KRTAP10-2 (11738614_at) / Fold change /veh KRTAP10-2 (11738614_at) / RFU ARHGAP8 /// PRR5-ARHGAP8 (11727945_x_at) / Fold change /veh ARHGAP8 /// PRR5-ARHGAP8 (11727945_x_at) / RFU KRTAP5-7 /// NADSYN1 (11734609_at) / Fold change /veh KRTAP5-7 /// NADSYN1 (11734609_at) / RFU RASL12 (11751679_a_at) / Fold change /veh RASL12 (11751679_a_at) / RFU CDKN2B (11736163_a_at) / Fold change /veh CDKN2B (11736163_a_at) / RFU PRF1 (11729649_at) / Fold change /veh PRF1 (11729649_at) / RFU, ZNF638 /// ZNF638-IT1 / Fold change vs veh, ZNF638 /// ZNF638-IT1 / RFU, PANK3 / Fold change vs veh, PANK3 / RFU, SH3YL1 / Fold change vs veh, SH3YL1 / RFU, ZEB2 / Fold change vs veh, ZEB2 / RFU, NRIP1 / Fold change vs veh, NRIP1 / RFU, PTTG1IP / Fold change vs veh, PTTG1IP / RFU, CAPN2 / Fold change vs veh, CAPN2 / RFU, MED14 / Fold change vs veh, MED14 / RFU, SNORA58 / Fold change vs veh, SNORA58 / RFU, C1orf63 / Fold change vs veh, C1orf63 / RFU, LRRFIP1 / Fold change vs veh, LRRFIP1 / RFU, NDUFAF7 / Fold change vs veh, NDUFAF7 / RFU, SLC12A2 / Fold change vs veh, SLC12A2 / RFU, IBTK / Fold change vs veh, IBTK / RFU, ESF1 / Fold change vs veh, ESF1 / Fold change vs veh, TMEM50B / RFU, TAOK1 / Fold change vs veh, TAOK1 / RFU, ACBD3 / Fold change vs veh, ACBD3 / RFU, TMA16 / Fold change vs veh, TMA16 / RFU, RWDD3 / Fold change vs veh, RWDD3 / RFU, BCAT1 / Fold change vs veh, BCAT1 / RFU, EDEM3 / Fold change vs veh, EDEM3 / RFU, TMEM33 / Fold change vs veh, TMEM33 / RFU, WDR75 / Fold change vs veh, WDR75 / RFU, AHCTF1 / Fold change vs veh, AHCTF1 / RFU, TFRC / Fold change vs veh, TFRC / RFU, ZDHHC17 / Fold change vs veh, ZDHHC17 / RFU, NOM1 / Fold change vs veh, NOM1 / RFU, ARL8B / Fold change vs veh, ARL8B / RFU, ZBTB11 / Fold change vs veh, ZBTB11 / RFU, TAMM41 / Fold change vs veh, TAMM41 / RFU, KIAA1704 /// LOC100996395 / Fold change vs veh, KIAA1704 /// LOC100996395 / RFU, ING1 / Fold change vs veh, ING1 / RFU, TRMT61B / Fold change vs veh, TRMT61B / RFU, FUBP3 / Fold change vs veh, FUBP3 / RFU, TP53 / Fold change vs veh, TP53 / RFU, TNKS2 / Fold change vs veh, TNKS2 / RFU, ZFP14 / Fold change vs veh, ZFP14 / RFU, ACTR2 / Fold change vs veh, ACTR2 / RFU, PPP3R1 / Fold change vs veh, PPP3R1 / RFU, PIK3R1 / Fold change vs veh, PIK3R1 / RFU, HNRNPA1 / Fold change vs veh, HNRNPA1 / RFU, RNF170 / Fold change vs veh, RNF170 / RFU, ZNF28 / Fold change vs veh, ZNF28 / RFU, RNGTT / Fold change vs veh, RNGTT / RFU, OGT / Fold change vs veh, OGT / RFU, BRD1 / Fold change vs veh, BRD1 / RFU, MARS / Fold change vs veh, MARS / RFU, ZNF655 / Fold change vs veh, ZNF655 / RFU, FAHD1 / Fold change vs veh, FAHD1 / RFU, BDP1 / Fold change vs veh, BDP1 / RFU, LRRCC1 / Fold change vs veh, LRRCC1 / RFU, ARID1A / Fold change vs veh, ARID1A / RFU, ZNF146 / Fold change vs veh, ZNF146 / RFU, ZNF330 / Fold change vs veh, ZNF330 / RFU, GPN3 / Fold change vs veh, GPN3 / RFU, C9orf123 / Fold change vs veh, C9orf123 / RFU, N4BP2L2 / Fold change vs veh, N4BP2L2 / RFU, ARFIP1 / Fold change vs veh, ARFIP1 / RFU, FAM179B / Fold change vs veh, FAM179B / RFU, BCL10 / Fold change vs veh, BCL10 / RFU, UHRF1BP1L / Fold change vs veh, UHRF1BP1L / RFU, BET1 / Fold change vs veh, BET1 / RFU, CNOT2 / Fold change vs veh, CNOT2 / RFU, ZNF268 / Fold change vs veh, ZNF268 / Fold change vs veh, ZNF507 / RFU, DGCR2 / Fold change vs veh, DGCR2 / RFU, WDSUB1 / Fold change vs veh, WDSUB1 / Fold change vs veh, HSP90B1 /// MIR3652 / RFU, ADSS / Fold change vs veh, ADSS / RFU, GK / Fold change vs veh, GK / RFU, ZNF148 / Fold change vs veh, ZNF148 / RFU, TAF9 / Fold change vs veh, TAF9 / RFU, SLC1A5 / Fold change vs veh, SLC1A5 / RFU, SLMO2 / Fold change vs veh, SLMO2 / RFU, ABCC4 / Fold change vs veh, ABCC4 / RFU, LOC101060439 /// RAP1B / Fold change vs veh, LOC101060439 /// RAP1B / RFU, RFX7 / Fold change vs veh, RFX7 / RFU, GTPBP10 / Fold change vs veh, GTPBP10 / RFU, CNEP1R1 / Fold change vs veh, CNEP1R1 / RFU, BIVM-ERCC5 /// ERCC5 / Fold change vs veh, BIVM-ERCC5 /// ERCC5 / RFU, ILF3 / Fold change vs veh, ILF3 / RFU 11762660_at / Fold change /veh 11762660_at / RFU VCAN (11757783_s_at) / Fold change /veh VCAN (11757783_s_at) / RFU DDX43 (11728927_at) / Fold change /veh DDX43 (11728927_at) / RFU KRT8 (11758188_x_at) / Fold change /veh KRT8 (11758188_x_at) / RFU NKD1 (11759106_at) / Fold change /veh NKD1 (11759106_at) / RFU SRD5A1 (11742802_a_at) / Fold change /veh SRD5A1 (11742802_a_at) / RFU TPSAB1 /// TPSB2 (11721975_s_at) / Fold change /veh TPSAB1 /// TPSB2 (11721975_s_at) / RFU GSTM3 (11746129_a_at) / Fold change /veh GSTM3 (11746129_a_at) / RFU IL23R (11737362_x_at) / Fold change /veh IL23R (11737362_x_at) / RFU TMEM51 (11727254_a_at) / Fold change /veh TMEM51 (11727254_a_at) / RFU PIWIL2 (11732686_x_at) / Fold change /veh PIWIL2 (11732686_x_at) / RFU ORM1 (11744905_x_at) / Fold change /veh ORM1 (11744905_x_at) / RFU CCDC152 (11743942_at) / Fold change /veh CCDC152 (11743942_at) / RFU ECM1 (11717891_a_at) / Fold change /veh ECM1 (11717891_a_at) / RFU IL23R (11748794_a_at) / Fold change /veh IL23R (11748794_a_at) / RFU TNFAIP8L3 (11732012_x_at) / Fold change /veh TNFAIP8L3 (11732012_x_at) / RFU MBOAT4 (11741988_at) / Fold change /veh MBOAT4 (11741988_at) / RFU 11764193_at / Fold change /veh 11764193_at / RFU TMEM53 (11763286_at) / Fold change /veh TMEM53 (11763286_at) / RFU MAGEB2 (11727129_at) / Fold change /veh MAGEB2 (11727129_at) / RFU TMEM200A (11744735_a_at) / Fold change /veh TMEM200A (11744735_a_at) / RFU CCDC152 (11751479_a_at) / Fold change /veh CCDC152 (11751479_a_at) / RFU FAM211A (11726209_a_at) / Fold change /veh FAM211A (11726209_a_at) / RFU RGS16 (11746705_a_at) / Fold change /veh RGS16 (11746705_a_at) / RFU VCAN (11755009_s_at) / Fold change /veh VCAN (11755009_s_at) / RFU RHOB (11743442_s_at) / Fold change /veh RHOB (11743442_s_at) / RFU RGS16 (11720943_a_at) / Fold change /veh RGS16 (11720943_a_at) / RFU RGS16 (11720944_at) / Fold change /veh RGS16 (11720944_at) / RFU, VPS4B / Fold change vs veh, VPS4B / RFU, CREB1 / Fold change vs veh, CREB1 / RFU, DNAJC13 / Fold change vs veh, DNAJC13 / RFU, GNAQ / Fold change vs veh, GNAQ / RFU, CDK5R1 / Fold change vs veh, CDK5R1 / RFU, ZRANB3 / Fold change vs veh, ZRANB3 / RFU, CUL4A / Fold change vs veh, CUL4A / RFU, CCNY / Fold change vs veh, CCNY / RFU, UFL1 / Fold change vs veh, UFL1 / RFU, COG3 / Fold change vs veh, COG3 / RFU, DIAPH2 / Fold change vs veh, DIAPH2 / RFU, SKA2 / Fold change vs veh, SKA2 / RFU, AFF3 / Fold change vs veh, AFF3 / RFU, LMF1 / Fold change vs veh, LMF1 / RFU, IPO11 / Fold change vs veh, IPO11 / RFU, DFFB / Fold change vs veh, DFFB / RFU, FOXP1 / Fold change vs veh, FOXP1 / RFU, CARD8 / Fold change vs veh, CARD8 / RFU, STRN3 / Fold change vs veh, STRN3 / RFU, ADK / Fold change vs veh, ADK / RFU, RASSF2 / Fold change vs veh, RASSF2 / RFU, WIPF1 / Fold change vs veh, WIPF1 / RFU, LARP1B / Fold change vs veh, LARP1B / RFU, RASA1 / Fold change vs veh, RASA1 / RFU, RB1 / Fold change vs veh, RB1 / RFU, PPFIA1 / Fold change vs veh, PPFIA1 / RFU, MAT2A / Fold change vs veh, MAT2A / RFU, CCT5 / Fold change vs veh, CCT5 / RFU, WDR92 / Fold change vs veh, WDR92 / RFU, CUX1 / Fold change vs veh, CUX1 / RFU, TTC7A / Fold change vs veh, TTC7A / RFU, TMEM135 / Fold change vs veh, TMEM135 / RFU, DEPTOR / Fold change vs veh, DEPTOR / RFU, CPM / Fold change vs veh, CPM / RFU, DNAJB6 / Fold change vs veh, DNAJB6 / RFU, CACNA2D3 / Fold change vs veh, CACNA2D3 / RFU, DTX4 / Fold change vs veh, DTX4 / RFU, TFCP2 / Fold change vs veh, TFCP2 / RFU, GMCL1 /// GMCL1P1 / Fold change vs veh, GMCL1 /// GMCL1P1 / RFU, AEBP2 / Fold change vs veh, AEBP2 / RFU, SNHG1 /// SNORD22 /// SNORD25 /// SNORD26 /// SNORD27 /// SNORD28 /// SNORD29 /// SNORD31 / Fold change vs veh, SNHG1 /// SNORD22 /// SNORD25 /// SNORD26 /// SNORD27 /// SNORD28 /// SNORD29 /// SNORD31 / Fold change (Aza/veh), C12orf56 (ProbeSet 11735607_a_at) / Fold change (ACY-1035/veh), C12orf56 (ProbeSet 11735607_a_at) / Fold change (Aza/veh), FGFR1OP (ProbeSet 11751329_s_at) / Fold change (ACY-1035/veh), FGFR1OP (ProbeSet 11751329_s_at) / Fold change (Aza/veh), VPS36 (ProbeSet 11739960_a_at) / Fold change (ACY-1035/veh), VPS36 (ProbeSet 11739960_a_at) / RFU SYPL1 (11715823_x_at) / Fold change /veh SYPL1 (11715823_x_at) / RFU IGFBP7 (11715501_s_at) / Fold change /veh IGFBP7 (11715501_s_at) / RFU REEP3 (11722064_at) / Fold change /veh REEP3 (11722064_at) / RFU IGLL1 (11728026_x_at) / Fold change /veh IGLL1 (11728026_x_at): dose or concentration left out as unconfirmed",
  "settings": "MV-4-11 cells, 48 hours",
  "data": [
    {"smiles": "Nc1ccc(-c2cccs2)cc1NC(=O)c1ccc2c(c1)cc(C1CC1)n2CCN1CCOCC1", "note": "[ACY-1035]", "values": [
      {"measurement": "Fold change /veh ANKRD19P (11752326_a_at)", "result": 1.02}
    ]}
  ]
}
